Activity calls are given as the source filed them. No cut-off for these calls is given here.
Key:
[1] = tested on: SH-SY5Y; assay: Neuroprotective activity against H2O2-induced cell death in human SH-SY5Y cells pretreated with compound followed by H2O2 stimulation and measured after 24 hrs by WST-8 assay; type: functional, cell-based
[2] = Neurotoxicity in human SH-SY5Y cells assessed as reduction in cell viability at 50 uM by WST-8 assay; type: toxicity, cell-based

## Cc1c(C)c2c(c(C)c1O)CCC(C)(C(=O)O)O2 (configuration not stated)
[1]
  Activity: Active

## O=C1C=C2Nc3cc(CCO)ccc3O[C@]23CCO[C@@]1(O)C3 (racemic)
[2]
  Activity: Non-Toxic
[1]
  Activity: Active

## O=C1C=C2Nc3ccc(CCO)cc3O[C@]23CCO[C@@]1(O)C3 (racemic)
[2]
  Activity: Non-Toxic
[1]
  Activity: Active

## OCCc1ccc(O)c(O)c1 [HYDROXYTYROSOL]
[2]
  Activity: Non-Toxic
[1]
  Activity: Active

From ChEMBL document CHEMBL5241116, “Isolation of Fluorescent Benzoxazines with Neuroprotective Activity from the Olive Weevil Pimelocerus perforatus” (J Nat Prod, 2022)
